The supplement of paper PMC10307832

How the values were obtained:
Experiment in all cases: relative viability (nuclei count vs DMSO), 5 days (fraction); higher = more cells survive
[1] = system: HCC-78
In short: (§1)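 Values are medians from duplicate plates. Each reflects relative viability, defined as the nuclei count of treated wells over that of vehicle wells. Lung cancer cell lines in 1536-well plates were pin-tool dosed one day after seeding with one drug alone or with a fixed anchor-drug dose plus five library-drug doses (not always all listed) in √10 steps, then fixed, stained and imaged at 4× after 5 days.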

[2] = system: NCI-H1437
In short: as §1

[3] = system: NCI-H1975
In short: as §1

[4] = system: COR-L23
In short: as §1

[5] = system: HCC-15
In short: as §1

[6] = system: NCI-H727
In short: as §1

[7] = system: PC-14
In short: as §1

[8] = system: NCI-H1666
In short: as §1

[9] = system: COR-L 105
In short: as §1

[10] = system: HCC-366
In short: as §1

[11] = system: 201T
In short: as §1

[12] = system: NCI-H1915
In short: as §1

[13] = system: HCC-44
In short: as §1

[14] = system: NCI-H3122
In short: as §1

[15] = system: A-427
In short: as §1

[16] = system: LK-2
In short: as §1

[17] = system: NCI-H1648
In short: as §1

[18] = system: HARA
In short: as §1

[19] = system: LCLC-97TM1
In short: as §1

[20] = system: NCI-H1944
In short: as §1

[21] = system: NCI-H2023
In short: as §1

[22] = system: NCI-H2405
In short: as §1

[23] = system: NCI-H460
In short: as §1

[24] = system: NCI-H1563
In short: as §1

Work on `Nc1cccc2c1CN(C1CCC(=O)NC1=O)C2=O` (stereo not drawn) [Lenalidomide] + COc1cccc2cc(-c3nc([C@H]4CC[C@H](C(=O)O)CC4)n4ncnc(N)c34)[nH]c12 [OSI-027] (partner 0.5 µM) yielded a relative viability ([1]; first compound 0.253 µM) of 0.418, a relative viability ([1]; first compound 0.8 µM) of 0.35 and a relative viability ([1]; first compound 2.53 µM) of 0.376. It also gave a relative viability ([1]; first compound 8 µM) of 0.382, a relative viability ([2]; first compound 0.253 µM) of 0.888 and a relative viability ([2]; first compound 0.8 µM) of 1.11. For the same molecule, the relative viability ([2]; first compound 2.53 µM) was 0.993, the relative viability ([2]; first compound 8 µM) was 0.956 and the relative viability ([3]; first compound 0.253 µM) was 0.817. The relative viability ([3]; first compound 0.8 µM) was 0.661, the relative viability ([3]; first compound 2.53 µM) was 0.79 and the relative viability ([3]; first compound 8 µM) was 0.595. For the same molecule, the relative viability ([4]; first compound 0.253 µM) was 0.781, the relative viability ([4]; first compound 0.8 µM) was 0.776 and the relative viability ([4]; first compound 2.53 µM) was 0.892. The relative viability ([4]; first compound 8 µM) was 0.787, the relative viability ([5]; first compound 0.253 µM) was 0.705 and the relative viability ([5]; first compound 0.8 µM) was 0.578. For the same molecule, the relative viability ([5]; first compound 2.53 µM) was 0.826, the relative viability ([5]; first compound 8 µM) was 0.689 and the relative viability ([6]; first compound 0.253 µM) was 0.523. For the same molecule, the relative viability ([6]; first compound 0.8 µM) was 0.446, the relative viability ([6]; first compound 2.53 µM) was 0.609 and the relative viability ([6]; first compound 8 µM) was 0.562. The relative viability ([7]; first compound 0.253 µM) was 0.791, the relative viability ([7]; first compound 0.8 µM) was 0.853 and the relative viability ([7]; first compound 2.53 µM) was 1.2. For the same molecule, the relative viability ([7]; first compound 8 µM) was 1.02, the relative viability ([8]; first compound 0.253 µM) was 0.822 and the relative viability ([8]; first compound 2.53 µM) was 0.927. For the same molecule, the relative viability ([8]; first compound 8 µM) was 0.894, the relative viability ([9]; first compound 0.253 µM) was 0.715 and the relative viability ([9]; first compound 0.8 µM) was 0.632. The relative viability ([9]; first compound 2.53 µM) was 0.697, the relative viability ([9]; first compound 8 µM) was 0.821 and the relative viability ([10]; first compound 0.253 µM) was 1.02. It also gave a relative viability ([10]; first compound 0.8 µM) of 0.709, a relative viability ([10]; first compound 2.53 µM) of 1.01 and a relative viability ([10]; first compound 8 µM) of 0.747. For the same molecule, the relative viability ([11]; first compound 0.253 µM) was 0.767, the relative viability ([11]; first compound 0.8 µM) was 0.494 and the relative viability ([11]; first compound 2.53 µM) was 0.799. It also gave a relative viability ([11]; first compound 8 µM) of 0.791, a relative viability ([12]; first compound 0.253 µM) of 0.61 and a relative viability ([12]; first compound 0.8 µM) of 0.653. It also gave a relative viability ([12]; first compound 2.53 µM) of 0.646, a relative viability ([12]; first compound 8 µM) of 0.615 and a relative viability ([13]; first compound 0.253 µM) of 0.636. For the same molecule, the relative viability ([13]; first compound 2.53 µM) was 0.535, the relative viability ([13]; first compound 8 µM) was 0.512 and the relative viability ([14]; first compound 0.253 µM) was 0.97. It also gave a relative viability ([14]; first compound 0.8 µM) of 1.21, a relative viability ([14]; first compound 2.53 µM) of 0.914 and a relative viability ([14]; first compound 8 µM) of 0.898. It also gave a relative viability ([15]; first compound 0.253 µM) of 0.48, a relative viability ([15]; first compound 0.8 µM) of 0.387 and a relative viability ([15]; first compound 2.53 µM) of 0.473. For the same molecule, the relative viability ([15]; first compound 8 µM) was 0.514, the relative viability ([16]; first compound 0.253 µM) was 0.215 and the relative viability ([16]; first compound 0.8 µM) was 0.19. For the same molecule, the relative viability ([16]; first compound 2.53 µM) was 0.191, the relative viability ([16]; first compound 8 µM) was 0.182 and the relative viability ([17]; first compound 0.253 µM) was 0.272. The relative viability ([17]; first compound 0.8 µM) was 0.22, the relative viability ([17]; first compound 2.53 µM) was 0.253 and the relative viability ([17]; first compound 8 µM) was 0.227. The relative viability ([18]; first compound 0.253 µM) was 0.612, the relative viability ([18]; first compound 2.53 µM) was 0.564 and the relative viability ([18]; first compound 8 µM) was 0.534. The relative viability ([19]; first compound 0.253 µM) was 0.544, the relative viability ([19]; first compound 0.8 µM) was 0.454 and the relative viability ([19]; first compound 2.53 µM) was 0.661. The relative viability ([19]; first compound 8 µM) was 0.563, the relative viability ([20]; first compound 0.253 µM) was 0.412 and the relative viability ([20]; first compound 0.8 µM) was 0.372. It also gave a relative viability ([20]; first compound 2.53 µM) of 0.491, a relative viability ([20]; first compound 8 µM) of 0.36 and a relative viability ([21]; first compound 0.253 µM) of 0.418. It also gave a relative viability ([21]; first compound 0.8 µM) of 0.337, a relative viability ([21]; first compound 2.53 µM) of 0.545 and a relative viability ([21]; first compound 8 µM) of 0.451. The relative viability ([22]; first compound 0.253 µM) was 0.586, the relative viability ([22]; first compound 0.8 µM) was 0.706 and the relative viability ([22]; first compound 2.53 µM) was 0.588. The relative viability ([22]; first compound 8 µM) was 0.596, the relative viability ([23]; first compound 0.253 µM) was 0.643 and the relative viability ([23]; first compound 0.8 µM) was 0.679. For the same molecule, the relative viability ([23]; first compound 2.53 µM) was 1.01, the relative viability ([23]; first compound 8 µM) was 0.709 and the relative viability ([24]; first compound 0.253 µM) was 0.751. It also gave a relative viability ([24]; first compound 0.8 µM) of 0.8, a relative viability ([24]; first compound 2.53 µM) of 0.804 and a relative viability ([24]; first compound 8 µM) of 0.72.
